Patent US20200147037A1, “NEW TREATMENT OF BRAIN CANCER” (priority 2017, published 2020)

Tests used:
[1] = system: glioblastoma; details: intracranial pump; WANG et al. 2018; cited from earlier work
[2] = system: A549 highly metastatic human lung tumor; details: Paclitaxel 25 μM

Row | Compound | increase in survival [1] [%] | % of embryo death [2] | Tumor weight [2] [mg] | reduction of brain metastases amount compared to controls [2] [%]
1 | CC(C)C[C@H](NC(=O)[C@H](Cc1ccccc1)NC(=O)c1cnccn1)B(O)O [Bortezomib] | 40 |  |  | 
2 | CC(=O)O[C@H]1C(=O)[C@@]2(C)[C@H]([C@H](OC(=O)c3ccccc3)[C@]3(O)C[C@H](OC(=O)[C@H](O)[C@@H](NC(=O)c4ccccc4)c4ccccc4)C(C)=C1C3(C)C)[C@]1(OC(C)=O)CO[C@@H]1C[C@@H]2O [Paclitaxel, paclitaxel] |  | 24%, N = 21 | 20.558 ± 1.902 | 61
